Test results reported in ChEMBL document CHEMBL1201862, “PubChem BioAssay data set” (2004).
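Method: 48-hour compound exposure of cells in 96-well plates, five concentrations, linear interpolation of endpoints. Abbreviation: GI50, concentration required for 50% inhibition of growth.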 The source made the active and inactive calls. Rule as the data show it: active = GI50 up to about 1.1 µM and inactive = higher.

Tests used:
Experiment in all cases: growth of human tumour cells (NCI), 48 h
[1] = tested on: HOP-62
[2] = tested on: RXF 393
[3] = tested on: NCI-H226
[4] = tested on: UACC-257
[5] = tested on: PC-3
[6] = tested on: OVCAR-4
[7] = tested on: SW-620
[8] = tested on: SK-MEL-5
[9] = tested on: NCI-H522
[10] = tested on: NCI-H460
[11] = tested on: TK-10
[12] = tested on: SF-295
[13] = tested on: EKVX
[14] = tested on: OVCAR-5
[15] = tested on: MDA-MB-435
[16] = tested on: OVCAR-3
[17] = tested on: SNB-75
[18] = tested on: NCI-H23
[19] = tested on: KM12
[20] = tested on: MOLT-4

Row | SMILES | GI50 [1] | GI50 [2] | GI50 [3] | GI50 [4] | GI50 [5] | GI50 [6] | GI50 [7] | GI50 [8] | GI50 [9] | GI50 [10] | GI50 [11] | GI50 [12] | GI50 [13] | GI50 [14] | GI50 [15] | GI50 [16] | GI50 [17] | GI50 [18] | GI50 [19] | GI50 [20]
1 | CCCn1c2ccccc2c2ccc3c(c21)C(=O)C=CC3=O | > 10 µM (inactive) | 2.1 µM (inactive) | 6.38 µM (inactive) | 1.78 µM (inactive) | 3.54 µM (inactive) | 1.88 µM (inactive) | 1.16 µM (inactive) | > 7.91 µM (inactive) | 1.98 µM (inactive) | > 10 µM (inactive) | 2.09 µM (inactive) | > 10 µM (inactive) | > 5.32 µM (inactive) | > 10 µM (inactive) | 2.3 µM (inactive) | 2.01 µM (inactive) | > 10 µM (inactive) | 2.58 µM (inactive) | > 10 µM (inactive) | 0.904 µM (active)
2 | C=CC/C(C(=O)OC)=C(/C(=O)OC)N(CCC)CCC | > 100 µM (inactive) | > 100 µM (inactive) | > 100 µM (inactive) | > 100 µM (inactive) | > 100 µM (inactive) | > 100 µM (inactive) | 76.7 µM (inactive) | > 100 µM (inactive) | 83.8 µM (inactive) | > 100 µM (inactive) | > 100 µM (inactive) | > 100 µM (inactive) | 74.3 µM (inactive) | > 100 µM (inactive) | > 100 µM (inactive) | 36.1 µM (inactive) | > 100 µM (inactive) | > 100 µM (inactive) | > 100 µM (inactive) | 61.8 µM (inactive)
3 | Cc1cc2c(c3c1c1ccccc1n3C)C(=O)C=CC2=O | 44.1 µM (inactive) | 15.3 µM (inactive) | 40.3 µM (inactive) | 18.2 µM (inactive) | 16.9 µM (inactive) | 12 µM (inactive) | 7.6 µM (inactive) | 32.3 µM (inactive) | 13.9 µM (inactive) | 33.9 µM (inactive) | 24.2 µM (inactive) | 32.4 µM (inactive) | > 75.5 µM (inactive) | 43.7 µM (inactive) | 28.8 µM (inactive) | 11.5 µM (inactive) | 41.6 µM (inactive) | 10.7 µM (inactive) | 25.2 µM (inactive) | 2 µM (inactive)
4 | N=C(N)N/N=C/c1cnn(C(=N)N)c1 | > 100 µM (inactive) | > 100 µM (inactive) | > 100 µM (inactive) | 57.4 µM (inactive) | 31.4 µM (inactive) | > 100 µM (inactive) | > 100 µM (inactive) | > 100 µM (inactive) | > 100 µM (inactive) | > 100 µM (inactive) | > 100 µM (inactive) | > 100 µM (inactive) | 45.7 µM (inactive) | > 100 µM (inactive) | > 100 µM (inactive) | > 100 µM (inactive) | 95.3 µM (inactive) | > 100 µM (inactive) | 64.1 µM (inactive) | > 100 µM (inactive)
5 | CC1(C)OC[C@@]2([C@@H]3CC[C@@H](C3)C2(C)C)N1O | > 100 µM (inactive) | > 100 µM (inactive) | > 100 µM (inactive) | > 100 µM (inactive) | 55.8 µM (inactive) | > 100 µM (inactive) | > 100 µM (inactive) | > 100 µM (inactive) | 62.1 µM (inactive) | > 100 µM (inactive) | > 100 µM (inactive) | > 100 µM (inactive) | > 100 µM (inactive) | > 100 µM (inactive) | > 100 µM (inactive) | > 100 µM (inactive) | > 100 µM (inactive) | > 100 µM (inactive) | > 100 µM (inactive) | > 100 µM (inactive)
6 | CC(C)[Si]1(C(C)C)OCC2OC(n3cnc4c(N)ncnc43)C(N)C2O[Si](C(C)C)(C(C)C)O1 (stereo not given) | 17.2 µM (inactive) | 8.97 µM (inactive) | 9.66 µM (inactive) | 5.73 µM (inactive) | 3.16 µM (inactive) | 8.09 µM (inactive) | 6.41 µM (inactive) | 2.06 µM (inactive) | 8.04 µM (inactive) | 4.07 µM (inactive) | 10.1 µM (inactive) | 3.65 µM (inactive) | 17.7 µM (inactive) | 16.8 µM (inactive) | 6.75 µM (inactive) | 5.22 µM (inactive) | 4.69 µM (inactive) | 9.16 µM (inactive) | 4.1 µM (inactive) | 2.08 µM (inactive)
7 | Cn1c(=O)c(C(=O)Nc2nc(C34CC5CC(CC(C5)C3)C4)cs2)c(O)c2ccccc21 | 10.7 µM (inactive) | 22.2 µM (inactive) | 52.8 µM (inactive) | > 100 µM (inactive) | > 100 µM (inactive) | > 100 µM (inactive) | > 100 µM (inactive) | > 100 µM (inactive) | 55.3 µM (inactive) | > 100 µM (inactive) | 25.1 µM (inactive) | > 100 µM (inactive) | > 100 µM (inactive) | > 100 µM (inactive) | > 100 µM (inactive) | > 100 µM (inactive) | 56.1 µM (inactive) | > 100 µM (inactive) | > 100 µM (inactive) | > 10 µM (inactive)
8 | c1csc(-c2ccc(-c3cccc4nsnc34)s2)c1 | 27.4 µM (inactive) | 94.4 µM (inactive) | > 100 µM (inactive) | > 100 µM (inactive) | > 100 µM (inactive) | 21.7 µM (inactive) | > 100 µM (inactive) | > 100 µM (inactive) | 71.6 µM (inactive) | > 100 µM (inactive) | 70.5 µM (inactive) | 44.8 µM (inactive) | > 100 µM (inactive) | 71.1 µM (inactive) | > 100 µM (inactive) | > 100 µM (inactive) | 49.3 µM (inactive) | > 100 µM (inactive) | > 100 µM (inactive) | 18.7 µM (inactive)
9 | Nc1nccc(Nc2ccc(S(N)(=O)=O)cc2)n1 | > 100 µM (inactive) | > 100 µM (inactive) | 35.2 µM (inactive) | > 100 µM (inactive) | > 100 µM (inactive) | > 100 µM (inactive) | > 100 µM (inactive) | > 100 µM (inactive) | > 100 µM (inactive) | > 100 µM (inactive) | > 100 µM (inactive) | > 100 µM (inactive) | > 100 µM (inactive) | > 100 µM (inactive) | > 100 µM (inactive) | > 100 µM (inactive) | > 100 µM (inactive) | > 100 µM (inactive) | > 100 µM (inactive) | > 100 µM (inactive)
10 | C=C1[C@H]2O[C@H]2[C@@H](OC(C)=O)[C@@]2(C)[C@@H](OC(C)=O)C[C@@H](OC(=O)CCC)[C@@](C)(O)[C@@H]2[C@@H](OC(C)=O)[C@]2(O)[C@@H](C)C(=O)O[C@H]2[C@H]1Cl | > 100 µM (inactive) | 38.7 µM (inactive) | 0.159 µM (active) | > 100 µM (inactive) | > 100 µM (inactive) | > 100 µM (inactive) | > 100 µM (inactive) | > 100 µM (inactive) | > 100 µM (inactive) | > 100 µM (inactive) | 0.959 µM (active) | > 100 µM (inactive) | > 100 µM (inactive) | > 100 µM (inactive) | > 100 µM (inactive) | > 100 µM (inactive) | > 100 µM (inactive) | > 100 µM (inactive) | > 100 µM (inactive) | > 100 µM (inactive)
11 | Nc1nc(N)c(N=Nc2ccc([As](=O)(O)O)c(O)c2)c(N)n1 | 8.59 µM (inactive) | 7.48 µM (inactive) | > 100 µM (inactive) | 91.6 µM (inactive) | 22.7 µM (inactive) | 32.1 µM (inactive) | 4.89 µM (inactive) | 20.3 µM (inactive) | 3.5 µM (inactive) | 6.12 µM (inactive) | 16.8 µM (inactive) | 33.7 µM (inactive) | > 63.5 µM (inactive) | > 100 µM (inactive) | 0.82 µM (active) | 3.61 µM (inactive) | 11.5 µM (inactive) | 7.57 µM (inactive) | 28.8 µM (inactive) | 3.63 µM (inactive)
12 | COc1cc2c(cc1OCCCCCCCCCCN1C(=O)c3cccc4cccc(c34)C1=O)N=C[C@@H]1CCCN1C2=O | 14.3 µM (inactive) | 3.85 µM (inactive) | 1.72 µM (inactive) | 16.1 µM (inactive) | 3.13 µM (inactive) | 1.31 µM (inactive) | 4.34 µM (inactive) | 10.9 µM (inactive) | 6.67 µM (inactive) | 19.9 µM (inactive) | 13.5 µM (inactive) | 6.55 µM (inactive) | 2.11 µM (inactive) | 25.8 µM (inactive) | 4.25 µM (inactive) | 3.73 µM (inactive) | 4.58 µM (inactive) | 6.21 µM (inactive) | 16.1 µM (inactive) | 2.41 µM (inactive)
13 | O=c1c2ccccc2nc2sc(/N=C/C=C/c3ccccc3)nn12 | > 100 µM (inactive) | > 100 µM (inactive) | > 100 µM (inactive) | > 100 µM (inactive) | > 100 µM (inactive) | > 100 µM (inactive) | > 100 µM (inactive) | > 100 µM (inactive) | > 100 µM (inactive) | > 100 µM (inactive) | > 100 µM (inactive) | > 100 µM (inactive) | > 100 µM (inactive) | > 100 µM (inactive) | > 100 µM (inactive) | > 100 µM (inactive) | > 100 µM (inactive) | > 100 µM (inactive) | > 100 µM (inactive) | 44.9 µM (inactive)
14 | Cc1nn(-c2ccccc2)c2c1C(c1cc3ccccc3nc1Cl)NC(=O)N2 (stereo not given) | 20.4 µM (inactive) | 18.5 µM (inactive) | 19.1 µM (inactive) | 27.7 µM (inactive) | 19.8 µM (inactive) | 34.1 µM (inactive) | 17.7 µM (inactive) | 17 µM (inactive) | 16.5 µM (inactive) | 30.8 µM (inactive) | 28.2 µM (inactive) | 21.1 µM (inactive) | 25.9 µM (inactive) | 22.5 µM (inactive) | 23.9 µM (inactive) | 32.7 µM (inactive) | 18.9 µM (inactive) | 17.9 µM (inactive) | 21.2 µM (inactive) | 2.64 µM (inactive)
